Test results reported in US8053634B2, “Stabilization and blueing of anthocyanin pigments using gene encoding aromatic acyltransferase capable of transferring an aromatic acyl group to the 3′-position of anthocyanin” (Suntory Holdings Limited, priority 2004, dated 2011).

Legend:
[1] = Flower color simulation: purified pigment in juice squeezed from rose petals (cv. Medeo); format: physicochemical; settings: Medeo squeezed juice (petal pH 4.38), diluted 4-fold; among five purified pigments
Protocol: In order to simulate the flower color when the gene for gentian anthocyanin 5,3′-acyltransferase was introduced into roses and DEL 3G-5CafG-3′CafG was accumulated in rose petals, the color development of a purified pigment suspended in juice squeezed form rose petals (cv. Medeo) was measured. As for purified pigments, DEL 3G-5CafG-3′CafG, and as a comparative control, DEL 3G-5G, cyanidin 3,5-diglucoside (CYA 3G-5G), pelargonidin 3,5-diglucoside (PEL 3G-5G) and malvidin 3,5-diglucoside (MAL 3G-5G) were used. About 20 g of Medeo petals frozen at −80° C. for more than one hour were squeezed by a garlic squeezer for household use, and centrifuged at 1000 rpm for 1 minute to remove the debris of the petals, and the supernatant was prepared as the squeezed juice.
Twenty μl of 50 mM DMSO solution of purified pigment was added to 1 ml of the squeezed juice, and kept for 10 minutes, and the absorption and transmittance spectra at 380-780 nm were measured with a spectrophotometer UV-2500PC(SHIMADZU Corporation). The transmittance spectrum values were converted into CIE L*a*b* color system (JISZ8729). […] However, since the absorbance for 3G-5CafG-3′CafG was too high, it was diluted 4-fold prior to measurement.

[2] = target: T1, recombinant acyltransferase derived from Gentiana triflora expressed in E. coli (Gentiana triflora, UniProt Q9ZWR8); assay: Measurement of activity of recombinant acyltransferase (HPLC analysis of reaction products); format: biochemical; settings: for amount of product formed in time course of the reaction: 25-fold diluted enzyme, DEL 3G-5G-3′G 50, 100 or 200 μM as substrate, 2.5-20 minutes
T1 construct: a fragment containing the coding region of the acyltransferase and the 3′-untranslated region was subcloned to the NcoI/HindIII site; made in house; host or cells: E. coli JM109 (pQE8, derived from pQE60)
T1 sequence (Q9ZWR8 1-469): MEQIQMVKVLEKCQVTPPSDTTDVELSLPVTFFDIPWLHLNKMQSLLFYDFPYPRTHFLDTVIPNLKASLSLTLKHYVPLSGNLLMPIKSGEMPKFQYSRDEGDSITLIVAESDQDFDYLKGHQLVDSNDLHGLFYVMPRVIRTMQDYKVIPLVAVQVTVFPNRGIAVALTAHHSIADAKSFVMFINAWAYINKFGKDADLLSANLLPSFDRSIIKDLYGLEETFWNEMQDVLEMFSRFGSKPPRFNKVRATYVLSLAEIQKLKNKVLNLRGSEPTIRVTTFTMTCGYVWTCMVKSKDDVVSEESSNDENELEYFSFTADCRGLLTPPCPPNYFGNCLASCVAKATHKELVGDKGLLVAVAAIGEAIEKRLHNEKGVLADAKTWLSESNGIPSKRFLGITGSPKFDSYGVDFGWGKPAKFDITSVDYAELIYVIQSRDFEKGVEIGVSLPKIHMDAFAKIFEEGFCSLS
Protocol: The enzymatic activity of the recombinant enzyme obtained in Example 1 was measured with 3 types of delphinidin derivatives (delphinidin 3,5,3′-triglucoside (DEL 3G-5G-3′G), delphinidin 3-glucosyl-5-caffeoylglucosyl-3′-glucoside (DEL 3G-5CafG-3′G), delphinidin 3-glucosyl-5-glucosyl-3′-caffeoylglucoside (DEL 3G-5G-3′CafG)) shown in FIG. 1 and FIG. 2 as substrates. The reaction mixture contained 100 mM potassium phosphate buffer (pH 8.5), 0.2 mM caffeoyl-CoA, […] each of the above substrates and 5 μl of the enzyme solution in a total volume of 50 μl, and the reaction was carried out at 30° C. for 15 minutes. An equal volume of 90% acetonitrile solution containing 0.1% trifluoroacetic acid (TFA) was added to the reaction mixture to stop the reaction.
In order to analyze time course changes of reaction products, 5 μl of a 25-fold diluted enzyme solution and each of 50 μM, 100 μM or 200 μM of DEL 3G-5G-3′G were used as a substrate, and the reaction was stopped at 2.5, 5, 10, and 20 minutes later to analyze the products. The reaction products were analyzed with a reverse phase high performance liquid chromatography (HPLC) using a DE-41 column (4.6×250 mm, Shodex). Samples were eluted with an liner gradient of 20-50% of acetonitrile containing 0.5% TFA at 0.6 ml/min for 15 minutes, and then isoclatic elution at 0.6 ml/min for 10 minutes, and detected with SPD-M10A (SHIMAZU Corporation) at a wavelength of 250-600 nm. The HPLC elution time and absorption spectra of products were compared with those of authentic samples to identify the structure of products.

[3] = among four delphinidin glucosides, cited from earlier work
[4] = target: T2, 5,3′-aromatic acyltransferase from Gentiana triflora expressed in nierembergia (Gentiana triflora, UniProt Q9ZWR8); assay: In vitro 5,3′-aromatic acyltransferase activity of crude enzyme from petals of nierembergia transformants; format: biochemical; settings: in a manner similar to Example 2
T2 construct: expressed in transfected cells; host or cells: petals of transgenic nierembergia (binary construct pSPB1536, 35S promoter)
T2 sequence (Q9ZWR8 1-469): T1 sequence (Q9ZWR8 1-469)
Description: On the other hand, a crude enzyme was extracted from the petals of the transformants where transcription of all three genes were confirmed, in a manner as described in the report by Fujiwara et al. (Fujiwara et al., (1997) Eur. J. Biochem. 249: 45-51). […] On the other hand, when the crude enzyme from a non-recombinant nierembergia was used as the control, gentiodelphin was not detected.

[5] = target: T3, aromatic acyltransferase purified from gentian petals (Gentiana triflora, UniProt Q9ZWR8); assay: Activity of aromatic acyltransferase purified from gentian petals (active fraction adsorbed to Dyematrix column Red); format: biochemical; settings: as in Example 2
T3 construct: an enzyme naturally occurring in gentian petals also has both activities; from tissue; host or cells: Gentiana petals
T3 sequence (Q9ZWR8 1-469): T1 sequence (Q9ZWR8 1-469)
Description: The recombinant protein obtained by expressing a gentian cDNA of an aromatic acyltransferase in E. coli turned out to have an activity of transferring aromatic acyl groups to glucoses at the 5 and the 3′ position of a anthocyanin (Example 2). In order to confirm that an enzyme naturally occurring in gentian petals also has both activities of the 5-aromatic acyltransferase and the 3′-aromatic acyl transferase, this enzyme was purified from gentian petals. In a series of purification, as described in Example 2, each eluted fraction of column chromatography was measured for 5-aromatic acyltransferase activity with DEL 3G-5G as a substrate and for 3′-aromatic acyltransferase activity with DEL 3G-5G-3′G as a substrate.
According to a report by Fujiwara et al. (Fujiwara et al., Eur. J. Biochem. 249: 45, 1997) in which a gentian 5-aromatic acyltransferase was purified, 40-70% ammonium sulfate-saturated fraction was obtained from extract of approximately 100 g of Gentiana petals. This fraction was dialyzed with Sephadex G-25 (Pharmacia) equilibrated with 20 mM Tris-HCl (pH 7.0) containing 10 μM p-aminophenylmethanesulfonyl fluoride (APMSF) and 1 mM DTT (hereinafter referred to as the Tris buffer), then it was loaded to MONO Q (Pharmacia) equilibrated with the Tris buffer. […]
The active fractions were loaded to HiTrap Blue (Pharmacia) and extensively washed in the Tris buffer, and then the adsorbed fraction was eluted with a Tris buffer containing 0.9 M NaCl. […] When the eluted protein was subject to SDS-PAGE, only a single band was detected at molecular weight of 52 kDa which is an estimated molecular weight for an anthocyanin 5-acyltransferase.
In a series of purifications, each eluted fraction of column chromatography was measured for the 5-aromatic acyltransferase activity with DEL 3G-5G as a substrate and for the 5,3′-aromatic acyltransferase activity with DEL 3G-5G-3′G as a substrate, and the fractions with the highest activity in both acyltransferase reactions were completely identical.

[6] = 250 mM substrate, 0.2 mM caffeoyl-CoA, pH 8.5, 30° C., 15 minutes, undiluted enzyme

Compound | maximum absorption spectrum (relative) [1] | amount of product formed in time course of the reaction [2] | absorbance maximum (relative wavelength) [3] | blueness (relative) [3] | relative stability (fading) ([3]; aqueous solution of pH 6.5) | substrate converted to DEL 3G-5CafG-3′CafG [2, 6] [%] | substrate converted to DEL 3G-5CafG-3′G (acyl group at the 5 position alone) [2, 6] [%] | substrate converted to DEL 3G-5G-3′CafG (acyl group at the 3′ position alone) [2, 6] [%] | product formation from the substrate by crude enzyme of transgenic nierembergia [4] | reaction of the enzyme purified from gentian petals with the substrate [5]
O=C(/C=C/c1ccc(O)c(O)c1)OC[C@H]1O[C@@H](Oc2cc(-c3[o+]c4cc(O)cc(O[C@@H]5O[C@H](COC(=O)/C=C/c6ccc(O)c(O)c6)[C@@H](O)[C@H](O)[C@H]5O)c4cc3O[C@@H]3O[C@H](CO)[C@@H](O)[C@H](O)[C@H]3O)cc(O)c2O)[C@H](O)[C@@H](O)[C@@H]1O [DEL 3G-5CafG-3′CafG, gentiodelphin] | largest maximum absorption spectrum | increased according to the reaction time | longest wavelength | most blueish | most stable and refractory to fading |  |  |  |  | 
OC[C@H]1O[C@@H](Oc2cc3c(O[C@@H]4O[C@H](CO)[C@@H](O)[C@H](O)[C@H]4O)cc(O)cc3[o+]c2-c2cc(O)c(O)c(O[C@@H]3O[C@H](CO)[C@@H](O)[C@H](O)[C@H]3O)c2)[C@H](O)[C@@H](O)[C@@H]1O [DEL 3G-5G-3′G, delphinidin 3,5,3′-triglucoside] |  |  |  |  |  | 58.7 | 7.2 | ≤ 1 | formation of gentiodelphin was confirmed | reacted
delphinidin 3-glucosyl-5-caffeoylglucosyl-3′-glucoside [DEL 3G-5CafG-3′G] |  | increased according to the reaction time |  |  |  | 94.1 |  |  |  | reacted
delphinidin 3-glucosyl-5-glucosyl-3′-caffeoylglucoside [DEL 3G-5G-3′CafG] |  | barely detected |  |  |  | 95.2 |  |  |  | reacted
